Measurements taken from ChEMBL document CHEMBL4420076, “Amylin and calcitonin receptor agonist” (2017).
Numbered stars: 1 amine (or outer) side, 2 acyl side, 3 side chain; on linkers, the order of the positions; unused ones are H or OH. Peptide text beside a SMILES is read from it. * marks the point of attachment. C18 diacid = O=C(O)CCCCCCCCCCCCCCCCC(=O)*; γGlu = O=C(O)[C@H](CCC(=O)[*:2])N[*:1]; C14 diacid = O=C(O)CCCCCCCCCCCCC(=O)*; Palmitoyl = CCCCCCCCCCCCCCCC(=O)*

Experiments:
[1] = Solubility in 100 mM glycylglycine buffer at pH 3.0 incubated for 18 hrs by UPLC analysis; assay type: physicochemical
[2] = biological target: T1, Calcitonin receptor (Homo sapiens, UniProt P30988); assay: Agonist activity at human calcitonin receptor expressed in BHK570 cells assessed as increase in intracellular cAMP concentration incubated for 3 hrs in absence of albumin by CRE luciferase reporter gene assay; assay type: functional, cell-based
T1 sequence (P30988 whole entry): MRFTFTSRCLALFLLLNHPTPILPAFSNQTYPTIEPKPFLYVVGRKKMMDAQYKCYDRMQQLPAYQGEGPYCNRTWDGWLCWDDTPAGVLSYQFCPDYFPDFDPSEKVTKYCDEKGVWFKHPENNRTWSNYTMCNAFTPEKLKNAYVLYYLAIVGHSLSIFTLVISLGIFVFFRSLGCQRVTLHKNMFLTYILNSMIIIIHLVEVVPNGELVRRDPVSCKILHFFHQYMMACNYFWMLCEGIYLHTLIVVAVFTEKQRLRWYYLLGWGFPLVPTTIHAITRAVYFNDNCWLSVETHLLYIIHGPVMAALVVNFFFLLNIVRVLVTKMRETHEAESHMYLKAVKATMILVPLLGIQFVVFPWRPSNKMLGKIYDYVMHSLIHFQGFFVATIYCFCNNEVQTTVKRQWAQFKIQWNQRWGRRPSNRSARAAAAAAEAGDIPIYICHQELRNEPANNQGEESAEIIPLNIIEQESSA

[3] = Solubility in 100 mM bistrispropane buffer at pH 8.0 incubated for 18 hrs by UPLC analysis; assay type: physicochemical
[4] = Solubility in 100 mM glycylglycine buffer at pH 4.0 incubated for 18 hrs by UPLC analysis; assay type: physicochemical
[5] = Solubility in 100 mM bistrispropane buffer at pH 7.0 incubated for 18 hrs by UPLC analysis; assay type: physicochemical
[6] = biological target: T2, Amylin receptor AMY3; CALCR/RAMP3 (Homo sapiens, UniProt O60896+P30988); assay: Agonist activity at human amylin receptor expressed in BHK570 cells co-expressing RAMP3 assessed as increase in intracellular cAMP concentration incubated for 3 hrs in absence of albumin by CRE luciferase reporter gene assay; assay type: functional, cell-based
T2 sequence (P30988 whole entry): T1 sequence (P30988 whole entry)
T2 sequence (O60896 whole entry): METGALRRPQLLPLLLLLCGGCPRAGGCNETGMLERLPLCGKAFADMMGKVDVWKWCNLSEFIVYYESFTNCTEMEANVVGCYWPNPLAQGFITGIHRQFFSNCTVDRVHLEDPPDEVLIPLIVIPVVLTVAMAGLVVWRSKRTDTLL

[7] = biological target: T2, Amylin receptor AMY3; CALCR/RAMP3; assay: Displacement of [125I]-labeled rat amylin from human amylin receptor expressed in BHK tkts13 whole cells co-expressing RAMP3 incubated for 60 mins by scintillation proximity assay; assay type: cell-based
[8] = Solubility in 100 mM glycylglycine buffer at pH 5.0 incubated for 18 hrs by UPLC analysis; assay type: physicochemical
[9] = Solubility in 100 mM bistrispropane buffer at pH 7.5 incubated for 18 hrs by UPLC analysis; assay type: physicochemical
[10] = Solubility in 100 mM bistrispropane buffer at pH 6.5 incubated for 18 hrs by UPLC analysis; assay type: physicochemical
[11] = Solubility in 100 mM bistrispropane buffer at pH 6.0 incubated for 18 hrs by UPLC analysis; assay type: physicochemical

SMILES	solubility at 18 h [1] [µM]	EC50 [2] [nM]	solubility at 18 h [3] [µM]	solubility at 18 h [4] [µM]	solubility at 18 h [5] [µM]	EC50 [6] [nM]	IC50 [7] [nM]	solubility at 18 h [8] [µM]	solubility at 18 h [9] [µM]	solubility at 18 h [10] [µM]	solubility at 18 h [11] [µM]
CCCCCCCCCCCCCCCC(=O)N[C@@H](CCC(=O)O)C(=O)N[C@@H](C)C(=O)N[C@@H](CO)C(=O)N[C@@H](CCC(=O)O)C(=O)N[C@@H](CC(C)C)C(=O)N[C@@H](CO)C(=O)N[C@H](C(=O)N[C@@H](C)C(=O)N[C@@H](C)C(=O)N[C@@H](CC(C)C)C(=O)NCC(=O)N[C@@H](CCCNC(=N)N)C(=O)N[C@@H](CC(C)C)C(=O)N[C@@H](CO)C(=O)N[C@@H](C)C(=O)N[C@@H](CCC(=O)O)C(=O)N[C@@H](CC(C)C)C(=O)N[C@@H](Cc1cnc[nH]1)C(=O)N[C@@H](CCC(=O)O)C(=O)N[C@@H](CC(C)C)C(=O)N[C@@H](C)C(=O)N[C@H](C(=O)N[C@@H](CC(C)C)C(=O)N1CCC[C@H]1C(=O)N[C@@H](CCCNC(=N)N)C(=O)N[C@H](C(=O)N[C@@H](CCC(=O)O)C(=O)N[C@H](C(=O)NCC(=O)N1CCC[C@H]1C(=O)N[C@@H](CCC(=O)O)C(=O)N[C@@H](CO)C(=O)N1CCC[C@H]1C(N)=O)[C@@H](C)O)[C@@H](C)O)[C@@H](C)O)[C@@H](C)O (Palmitoyl-EASELSTAALGRLSAELHELATLPRTETGPESP-NH2)	≥ 200	0.013	≥ 200	≥ 200	≥ 200	0.01	0.435	≥ 200	≥ 200	≥ 200	≥ 200
CC(C)C[C@H](NC(=O)[C@H](C)NC(=O)[C@H](C)NC(=O)[C@@H](NC(=O)[C@H](CO)NC(=O)[C@H](CC(C)C)NC(=O)[C@H](CCC(=O)O)NC(=O)[C@H](CO)NC(=O)[C@H](C)NC(=O)CC[C@H](NC(=O)CCCCCCCCCCCCC(=O)O)C(=O)O)[C@@H](C)O)C(=O)NCC(=O)N[C@@H](CCCNC(=N)N)C(=O)N[C@@H](CC(C)C)C(=O)N[C@@H](CO)C(=O)N[C@@H](C)C(=O)N[C@@H](CCC(=O)O)C(=O)N[C@@H](CC(C)C)C(=O)N[C@@H](Cc1cnc[nH]1)C(=O)N[C@@H](CCC(=O)O)C(=O)N[C@@H](CC(C)C)C(=O)N[C@@H](C)C(=O)N[C@H](C(=O)N[C@@H](CC(C)C)C(=O)N1CCC[C@H]1C(=O)N[C@@H](CCCNC(=N)N)C(=O)N[C@H](C(=O)N[C@@H](CCC(=O)O)C(=O)N[C@H](C(=O)NCC(=O)N1CCC[C@H]1C(=O)N[C@@H](CCC(=O)O)C(=O)N[C@@H](CO)C(=O)N1CCC[C@H]1C(N)=O)[C@@H](C)O)[C@@H](C)O)[C@@H](C)O ({C14 diacid-γGlu}-ASELSTAALGRLSAELHELATLPRTETGPESP-NH2)	≥ 200	0.003	≥ 200	≥ 200	≥ 200	0.008	1.14	≥ 200	≥ 200	≥ 200	≥ 200
CC(C)C[C@H](NC(=O)[C@H](CCC(=O)O)NC(=O)[C@H](Cc1cnc[nH]1)NC(=O)[C@H](CC(C)C)NC(=O)[C@H](CCC(=O)O)NC(=O)[C@H](C)NC(=O)[C@H](CO)NC(=O)[C@H](CC(C)C)NC(=O)[C@H](CCCNC(=N)N)NC(=O)CNC(=O)[C@H](CC(C)C)NC(=O)[C@@H](NC(=O)[C@H](C)NC(=O)[C@@H](NC(=O)[C@H](CO)NC(=O)[C@@H](NC(=O)[C@H](CCC(=O)O)NC(=O)[C@H](CO)NC(=O)[C@H](C)NC(=O)CC[C@H](NC(=O)CCCCCCCCCCCCCCCCC(=O)O)C(=O)O)C(C)C)[C@@H](C)O)C(C)C)C(=O)N[C@@H](C)C(=O)N[C@H](C(=O)N[C@@H](CC(C)C)C(=O)N1CCC[C@H]1C(=O)N[C@@H](CCCNC(=N)N)C(=O)N[C@H](C(=O)N[C@@H](CCC(=O)O)C(=O)N[C@H](C(=O)NCC(=O)N[C@@H](CO)C(=O)NCC(=O)N[C@@H](CO)C(=O)N1CCC[C@H]1C(N)=O)[C@@H](C)O)[C@@H](C)O)[C@@H](C)O ({C18 diacid-γGlu}-ASEVSTAVLGRLSAELHELATLPRTETGSGSP-NH2)	≥ 200	0.013	≥ 200	≥ 200	≥ 200	0.032	0.812	≥ 200	≥ 200	≥ 200	–
